# Measured values as given in PMC9177597, “Structural basis of substrate recognition and translocation by human very long-chain fatty acid transporter ABCD1” (Nature Communications, 2022).
# Changes are numbered by the printed parent chain.
# What was measured:
# Experiment in all cases: substrate-stimulated ATPase assay (colorimetric Pi release)
# Format in all cases: biochemical
# chABCD1 (chimeric ABCD1) [1] = target: T1, chABCD1 (chimeric ABCD1) (Homo sapiens, UniProt P33897, K336A); conditions: 5 μM C22:0-CoA, 2 mM ATP, 2 mM MgCl2, LMNG + CHS, pH 7.5, 37 °C
# T1 construct: single polypeptide: N-terminal FLAG tag, PMP-4 residues 1-65 replacing human ABCD1 residues 1-63, then human ABCD1 64-745; HEK293F; homodimer; LMNG/CHS for assays, digitonin for cryo-EM; with PMP-4 (peroxisomal membrane protein related, ABCD1 homolog, Caenorhabditis elegans; N-terminal segment fused to the target chain)
# T1 sequence (P33897 64-745 K336A): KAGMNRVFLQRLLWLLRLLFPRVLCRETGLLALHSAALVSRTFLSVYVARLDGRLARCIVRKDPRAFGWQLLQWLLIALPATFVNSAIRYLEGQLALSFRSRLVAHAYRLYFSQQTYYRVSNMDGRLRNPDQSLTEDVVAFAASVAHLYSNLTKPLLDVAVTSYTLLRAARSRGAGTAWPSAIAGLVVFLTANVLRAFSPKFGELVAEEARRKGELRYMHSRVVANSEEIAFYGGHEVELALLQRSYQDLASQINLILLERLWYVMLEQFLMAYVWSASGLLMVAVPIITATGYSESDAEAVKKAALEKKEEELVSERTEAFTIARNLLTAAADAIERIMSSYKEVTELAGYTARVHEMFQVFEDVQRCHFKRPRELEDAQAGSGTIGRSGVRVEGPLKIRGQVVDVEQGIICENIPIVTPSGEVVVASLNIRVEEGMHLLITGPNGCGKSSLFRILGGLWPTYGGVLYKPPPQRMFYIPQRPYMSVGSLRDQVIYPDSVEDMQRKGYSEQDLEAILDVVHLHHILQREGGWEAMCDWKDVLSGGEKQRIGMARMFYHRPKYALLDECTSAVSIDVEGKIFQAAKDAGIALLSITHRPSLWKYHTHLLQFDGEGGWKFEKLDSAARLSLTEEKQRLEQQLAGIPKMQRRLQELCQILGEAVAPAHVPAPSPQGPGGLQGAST
# chABCD1 (chimeric ABCD1) [2] = target: T2, chABCD1 (chimeric ABCD1) (Homo sapiens, UniProt P33897, T693M); conditions: 2 mM ATP, 2 mM MgCl2, LMNG + CHS, pH 7.5, 37 °C, varying C22:0-CoA
# T2 construct: single polypeptide: N-terminal FLAG tag, PMP-4 residues 1-65 replacing human ABCD1 residues 1-63, then human ABCD1 64-745; HEK293F; homodimer; LMNG/CHS for assays, digitonin for cryo-EM; with PMP-4 (peroxisomal membrane protein related, ABCD1 homolog, Caenorhabditis elegans; N-terminal segment fused to the target chain)
# T2 sequence (P33897 64-745 T693M): T1 sequence (P33897 64-745 K336A) with A273K, T630M
# chABCD1 (chimeric ABCD1) [3] = target: T3, chABCD1 (chimeric ABCD1) (Homo sapiens, UniProt P33897, R104A); conditions: 5 μM C22:0-CoA, 2 mM ATP, 2 mM MgCl2, LMNG + CHS, pH 7.5, 37 °C
# T3 construct: single polypeptide: N-terminal FLAG tag, PMP-4 residues 1-65 replacing human ABCD1 residues 1-63, then human ABCD1 64-745; HEK293F; homodimer; LMNG/CHS for assays, digitonin for cryo-EM; with PMP-4 (peroxisomal membrane protein related, ABCD1 homolog, Caenorhabditis elegans; N-terminal segment fused to the target chain)
# T3 sequence (P33897 64-745 R104A): T1 sequence (P33897 64-745 K336A) with R41A, A273K
smiles,measurement,setting,value
CCCCCCCCCCCCCCCCCCCCCC(=O)SCCNC(=O)CCNC(=O)[C@H](O)C(C)(C)COP(=O)(O)OP(=O)(O)OC[C@H]1O[C@@H](n2cnc3c(N)ncnc32)[C@H](O)[C@@H]1OP(=O)(O)O [C22:0-CoA],relative ATPase activity,chABCD1 (chimeric ABCD1) [1],"displayed significantly decreased substrate-simulated ATPase activity, compared to the wild-type"
same,ATPase activity,chABCD1 (chimeric ABCD1) [2],"ATPase activity assays of T693M mutant, which showed an almost non-detectable activity"
same,relative ATPase activity,chABCD1 (chimeric ABCD1) [3],"displayed significantly decreased substrate-simulated ATPase activity, compared to the wild-type"
